These results are taken from US9820937B2, “Pharmaceutical composition formulated for pre-gastric absorption of monoamine oxidase B inhibitors” (R.P. Scherer Technologies, LLC, priority 1997, dated 2017).

The test deals with T1, MAO-B (Homo sapiens, UniProt P27338).
T1 construct: from tissue; host or cells: whole body of living study subjects (in vivo); no isolated enzyme
T1 sequence (P27338 1-520): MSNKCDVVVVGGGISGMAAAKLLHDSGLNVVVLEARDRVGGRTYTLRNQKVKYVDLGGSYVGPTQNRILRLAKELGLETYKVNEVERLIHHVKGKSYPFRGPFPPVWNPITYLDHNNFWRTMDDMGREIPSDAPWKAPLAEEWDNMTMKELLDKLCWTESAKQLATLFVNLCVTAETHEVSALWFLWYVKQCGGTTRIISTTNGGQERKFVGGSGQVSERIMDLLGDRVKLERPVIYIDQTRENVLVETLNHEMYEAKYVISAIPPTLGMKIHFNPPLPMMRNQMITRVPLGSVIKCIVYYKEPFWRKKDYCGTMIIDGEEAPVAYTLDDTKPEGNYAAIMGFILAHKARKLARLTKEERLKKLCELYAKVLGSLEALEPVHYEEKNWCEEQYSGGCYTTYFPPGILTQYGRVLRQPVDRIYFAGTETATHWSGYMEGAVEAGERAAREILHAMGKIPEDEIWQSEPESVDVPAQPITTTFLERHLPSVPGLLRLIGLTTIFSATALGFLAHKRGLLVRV
The test is classed as in vivo. As to conditions: four pharmacokinetic studies.

For the molecule `C#CCN[C@H](C)Cc1ccccc1` [N-desmethylselegiline], the “correlation of Log 10 plasma AUC with 24 hour cumulative urinary excretion of phenethylamine” value is “no significant correlation”.
